These are literature values, as cited in patent US6184255A, “Pharmaceutical composition comprising coenzyme Q10” (Kaneka Corporation, priority 1996, dated 2001).

The conditions of this data set: oral, considerably greater amount than actually needed.

On to `COC1=C(OC)C(=O)C(C/C=C(\C)CC/C=C(\C)CC/C=C(\C)CC/C=C(\C)CC/C=C(\C)CC/C=C(\C)CC/C=C(\C)CC/C=C(\C)CC/C=C(\C)CCC=C(C)C)=C(C)C1=O` [Coenzyme Q10], for which the adverse gastrointestinal reactions entry is “adverse gastrointestinal reactions such as epigastric discomfort, anorexia, nausea, and diarrheas”.
